Laboratory results reported in patent publication US7598234B2, “Steroid derived antibiotics” (Brigham Young University, priority 1998, dated 2009).

Experiments:
[1] = system: Gram-negative bacteria; assay: MIC of ester and amide side chain compounds (Table 14); assay type: cell-based; conditions: strain not given
Protocol: (§1) Aliquots of 1 mL of the suspension were added to test tubes containing 1 mL TSB and incrementally varied concentrations of cholic acid derivatives and/or erythromycin or novobiocin. In the sensitization experiments, erythromycin or novobiocin were added 15 minutes later than the cholic acid derivatives. The samples were subjected to stationary incubation at 37° C. for 24 hours. Sample turbidity was determined by measuring absorption at 760 nm (HP 8453 UV-Visible Chemstation, Hewlett Packard). Additionally, an alliquot from each of the samples showing no measurable turbidity was subcultured on TSA plates (alliquots were diluted to provide fewer than 300 CFU). Colonies that grew on the subculture after overnight incubation were counted and the number of CFU/mL in the samples were calculated. The calculated values were compared to the number of CFU/mL in the original inoculum.
(§2) Ester and amide side chains: Additional compounds, for example, compounds with amide and ester side chains, were tested.

[2] = system: Gram-negative bacteria; assay: Sensitization to erythromycin, ester and amide side chain compounds (Table 14); assay type: cell-based; conditions: Table 14; strain not given
Protocol: as §1
(§3) Ability to permeabilize outer membrane: Compounds 11, 106, and 108-114 (FIG. 1) were tested for antibiotic activity. They were also tested for the ability to permeabilize the outer membrane of Gram-negative bacteria, causing sensitization to hydrophobic antibiotics that cannot cross the outer membrane. The permeabilization of the outer membrane was measured using erythromycin and novobiocin.
as §2

[3] = system: Gram-negative bacteria; assay: Sensitization to novobiocin, ester and amide side chain compounds (Table 14); assay type: cell-based; conditions: strain not given
Protocol: as §1, §3, §2

[4] = system: E. coli (ATCC 10798); assay: MIC and MBC measurement with E. coli (ATCC 10798); assay type: cell-based, Escherichia coli; conditions: Table 1; E. coli (ATCC 10798)
Excerpt: General: Microorganisms. Reference strains were purchased from the American Type Culture Collection (Rockville, Md.) or Bactrol disks from Difeo Laboratories (Detroit, Mich.). The following specific ATCC strains were used: 10798 Escherichia coli, 25922 Escherichia coli, 13883 Klebsiella pneumoniae, 27853 Pseudomonas aeruginosa, 14028 Salmonella typhimurium, 29212 Enterococcus faecalis, 25923 Staphylococcus aureus, 19615 Streptococcus pyogenes, and 90028 Candida albicans. Bacterial strains were maintained on Mueller-Hinton agar plates, and Candida albicans was maintained on Sabouraud Dextrose agar plates.
Tryptic soy broth (TSB) was made by dissolving 27.5 grams of tryptic soy broth without dextrose (DIFCO Laboratories) in 1 liter of deionized water and sterilizing at 121° C. for 15 minutes. Solid agar (TSA) plates were made by dissolving 6.4 grams of tryptic soy broth and 12 grams of agar (purified grade, Fischer Scientific) in 800 mL of deionized water and sterilizing at 121° C. for 20 minutes. Aliquots (20 mL) of the homogeneous solution were then poured in sterile plastic petri dishes (100×15 mm, Fisher Scientific). Solutions of compounds were made by dissolving the HCl salt of the respective compound into an appropriate amount of deionized and sterilized water followed by microfiltration.
as §1

[5] = system: E. coli (ATCC 10798); assay: Sensitization to erythromycin (concentration lowering the MIC of erythromycin), E. coli (ATCC 10798); assay type: cell-based, Escherichia coli; conditions: Table 2; E. coli (ATCC 10798)
Protocol: Alternatively, “fractional inhibitory concentration (FIC)” is also useful for determination of synergy between the compounds of the invention, or the compounds in combination with known antibiotics. FICs can be performed by checkerboard titrations of compounds in one dimension of a microtiter plate, and of antibiotics in the other dimension, for example. The FIC is calculated by looking at the impact of one antibiotic on the MIC of the other and vice versa. […] Preferably, an FIC of less than 0.5 is obtained for synergism. As used herein, FIC can be determined as follows:
as §1, §3
The MICs of erythromycin and novobiocin against E. coli (ATCC 10798) at 70 and >500 μg/mL were measured.

Row | Compound | MIC [1] | a: concentration of cholic acid derivatives required to lower MIC of erythromycin to 1 μg/ML [2] | b: concentration of cholic acid derivatives required to lower MIC of novobiocin to 1 μg/ML [3] | MIC [4] | MIC: concentration required to lower the MIC of erythromycin from 70 μg/mL to 1 μg/mL [5]
1 | CC(CCCO)C1CCC2C3C(NC(=O)C(N)CCCCN)CC4CC(NC(=O)C(N)CCCCN)CCC4(C)C3CC(NC(=O)C(N)CCCCN)C12C (centres unmarked) [Compound 209c] | 85 µg/mL | 45 µg/mL | 60 µg/mL | – | –
2 | C[C@H](CCCO)[C@H]1CC[C@H]2[C@@H]3[C@H](OC(=O)CCN)C[C@@H]4C[C@H](OC(=O)CCN)CC[C@]4(C)[C@H]3C[C@H](OC(=O)CCN)[C@]12C [Compound 203b] | 80 µg/mL | 4 µg/mL | 10 µg/mL | – | –
3 | C[C@H](CCCO)[C@H]1CC[C@H]2[C@@H]3[C@H](NC(=O)CCN)C[C@@H]4C[C@H](NC(=O)CCN)CC[C@]4(C)[C@H]3C[C@H](NC(=O)CCN)[C@]12C [Compound 209b] | >100 µg/mL | 40 µg/mL | 75 µg/mL | – | –
4 | C[C@H](CCCO)[C@H]1CC[C@H]2[C@@H]3[C@H](OC(=O)CN)C[C@@H]4C[C@H](OC(=O)CN)CC[C@]4(C)[C@H]3C[C@H](OC(=O)CN)[C@]12C [Compound 203a] | 85 µg/mL | 18 µg/mL | 55 µg/mL | – | –
5 | C[C@H](CCCN(C)Cc1ccccc1)[C@H]1CC[C@H]2[C@@H]3[C@H](OC(=O)CCN)C[C@@H]4C[C@H](OC(=O)CCN)CC[C@]4(C)[C@H]3C[C@H](OC(=O)CCN)[C@]12C.Cl.Cl.Cl.Cl [Compound 7] | 70 µg/mL | 3 µg/mL | 13 µg/mL | 28 µg/mL | 2.5 µg/mL
